Activity calls are given as the source filed them.
Key:
[1] = M. tuberculosis H37Rv growth inhibitors, H37Rv strain (AID 1626); assay type: functional
[2] = viability of uninfected HEp-2 cells – cell-based, HTS, cytotoxicity control for RSV inhibitor project, dose response (AID 2410); assay type: functional; conditions: human respiratory syncytial virus
[3] = cells
[4] = molecular target: T1, Tyrosine-protein phosphatase non-receptor type 7 (Homo sapiens, UniProt P35236); assay: HePTP tyrosine phosphatase activity blockers – biochemical, absorbance, leukemia target, primary screen (AID 521); assay type: functional
T1 sequence (P35236 whole entry): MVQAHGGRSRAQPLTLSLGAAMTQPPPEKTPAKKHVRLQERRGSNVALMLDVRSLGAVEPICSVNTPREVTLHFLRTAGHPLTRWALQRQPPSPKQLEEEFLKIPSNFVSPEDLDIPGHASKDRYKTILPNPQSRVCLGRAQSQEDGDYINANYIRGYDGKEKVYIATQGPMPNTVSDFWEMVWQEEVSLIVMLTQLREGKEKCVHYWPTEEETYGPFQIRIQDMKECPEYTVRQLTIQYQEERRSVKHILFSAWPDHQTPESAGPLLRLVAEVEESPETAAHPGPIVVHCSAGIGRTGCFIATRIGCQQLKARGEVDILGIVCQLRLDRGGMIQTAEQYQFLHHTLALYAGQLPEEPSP

[5] = mitochondrial function rescue without frataxin homolog – Friedreich's ataxia, plus single-dose screen, dose response (AID 1465); assay type: functional;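 also: yeast depleted of Yfh1p frataxin homolog grown on glycerol needing respiration; WST-1 tetrazolium dye reduction as measure of cellular dehydrogenase metabolic activity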
[6] = molecular target: Peroxisome proliferator-activated receptor gamma/Nuclear receptor coactivator 2 (Homo sapiens, UniProt P37231); assay type: functional;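 also: agonist potency for raising coactivator recruitment to the receptor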
[7] = NIH3T3 cell viability loss – ATP luminescence, mouse fibroblasts, counter-screen, dose response (AID 2010); assay type: functional, cell-based;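 also: cells exposed to compound for about 90 hours before reading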
[8] = molecular target: Peroxisome proliferator-activated receptor gamma/Nuclear receptor coactivator 3 (Homo sapiens, UniProt P37231); assay type: functional;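 also: agonist potency for raising coactivator recruitment to the receptor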
[9] = molecular target: Peroxisome proliferator-activated receptor gamma/Nuclear receptor coactivator 1 (Homo sapiens, UniProt P37231); assay type: functional;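 also: agonist potency as compounds enhance coactivator SRC-1 recruitment to PPARgamma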
[10] = Trypanosoma cruzi growth suppression in host cells – NIH3T3 host cells, beta-gal luminescence, confirmation (AID 2044); assay type: functional, cell-based;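 also: intracellular parasites grown in NIH/3T3 mouse fibroblasts as host cells; luminescent beta-galactosidase reporter signal from transgenic T. cruzi replicating inside host cells; inhibitors lower the luminescence signal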
[11] = viability loss of HPDE-C7K cells – cell-based, fluorescence, HTS, primary screen (AID 431); assay type: functional; conditions: Homo sapiens
[12] = HPDE-C7 pancreatic duct cell viability loss – fluorescence, HTS (AID 430); assay type: functional, cell-based; conditions: Homo sapiens
[13] = molecular target: Cytochrome P450 2D6 (Homo sapiens, UniProt P10635); assay: qHTS Assay for Inhibitors and Substrates of Cytochrome P450 2D6. [Related pubchem assays: 410 ]; assay type: ADME; conditions: read-out: Potency
[14] = molecular target: T2, Cytochrome P450 2C9 (Homo sapiens, UniProt P11712); conditions: Potency
[15] = molecular target: T3, Carboxy-terminal domain RNA polymerase II polypeptide A small phosphatase 1 (Homo sapiens, UniProt Q9GZU7); assay: CTDSP1 inhibitors, concentration-response, biochemical, absorbance readout, ultra-high-throughput screen actives (AID 540297); assay type: functional
T3 sequence (Q9GZU7 whole entry): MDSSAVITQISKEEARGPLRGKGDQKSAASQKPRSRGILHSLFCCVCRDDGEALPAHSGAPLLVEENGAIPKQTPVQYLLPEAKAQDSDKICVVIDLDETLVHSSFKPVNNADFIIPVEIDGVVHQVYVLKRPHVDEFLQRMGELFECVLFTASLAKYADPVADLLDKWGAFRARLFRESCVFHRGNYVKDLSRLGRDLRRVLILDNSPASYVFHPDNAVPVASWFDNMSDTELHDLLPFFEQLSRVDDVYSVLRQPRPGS

[16] = molecular target: T4, Caspase-6 (Homo sapiens, UniProt P55212); assay: inhibition of CASP6 peptide cleavage – biochemical, VEID-R110 fluorescence, cherry-pick, dose response (AID 720632)
T4 sequence (P55212 whole entry): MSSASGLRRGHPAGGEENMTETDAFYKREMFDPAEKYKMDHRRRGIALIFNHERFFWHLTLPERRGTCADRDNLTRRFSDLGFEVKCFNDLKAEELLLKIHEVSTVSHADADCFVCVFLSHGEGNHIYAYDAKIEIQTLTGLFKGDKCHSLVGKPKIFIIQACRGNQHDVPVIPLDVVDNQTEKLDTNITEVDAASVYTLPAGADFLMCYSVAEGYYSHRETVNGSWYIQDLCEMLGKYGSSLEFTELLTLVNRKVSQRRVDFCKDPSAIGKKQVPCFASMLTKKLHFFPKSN

[17] = fluconazole-exposed Candida albicans growth modulators – fluorescence, retest, confirmation (AID 2467); assay type: functional, cell-based
[18] = test system: Streptococcus sp. 'group A'; assay: Streptococcus pyogenes SK(-)GAS viability under kanamycin – luminescence, BacTiterGlo, confirmation, counter-screen for streptokinase expression inhibitor project, dose response (AID 1900); assay type: functional, organism-based
[19] = molecular target: T5, Short transient receptor potential channel 4 (Mus musculus, UniProt Q9QUQ5); assay: calcium entry via TRPC4 opening agents – cell-based, HEK293 TRPC4/mu-opioid, Fluo-4 calcium, dose response (AID 434937); assay type: functional
T5 sequence (Q9QUQ5 whole entry): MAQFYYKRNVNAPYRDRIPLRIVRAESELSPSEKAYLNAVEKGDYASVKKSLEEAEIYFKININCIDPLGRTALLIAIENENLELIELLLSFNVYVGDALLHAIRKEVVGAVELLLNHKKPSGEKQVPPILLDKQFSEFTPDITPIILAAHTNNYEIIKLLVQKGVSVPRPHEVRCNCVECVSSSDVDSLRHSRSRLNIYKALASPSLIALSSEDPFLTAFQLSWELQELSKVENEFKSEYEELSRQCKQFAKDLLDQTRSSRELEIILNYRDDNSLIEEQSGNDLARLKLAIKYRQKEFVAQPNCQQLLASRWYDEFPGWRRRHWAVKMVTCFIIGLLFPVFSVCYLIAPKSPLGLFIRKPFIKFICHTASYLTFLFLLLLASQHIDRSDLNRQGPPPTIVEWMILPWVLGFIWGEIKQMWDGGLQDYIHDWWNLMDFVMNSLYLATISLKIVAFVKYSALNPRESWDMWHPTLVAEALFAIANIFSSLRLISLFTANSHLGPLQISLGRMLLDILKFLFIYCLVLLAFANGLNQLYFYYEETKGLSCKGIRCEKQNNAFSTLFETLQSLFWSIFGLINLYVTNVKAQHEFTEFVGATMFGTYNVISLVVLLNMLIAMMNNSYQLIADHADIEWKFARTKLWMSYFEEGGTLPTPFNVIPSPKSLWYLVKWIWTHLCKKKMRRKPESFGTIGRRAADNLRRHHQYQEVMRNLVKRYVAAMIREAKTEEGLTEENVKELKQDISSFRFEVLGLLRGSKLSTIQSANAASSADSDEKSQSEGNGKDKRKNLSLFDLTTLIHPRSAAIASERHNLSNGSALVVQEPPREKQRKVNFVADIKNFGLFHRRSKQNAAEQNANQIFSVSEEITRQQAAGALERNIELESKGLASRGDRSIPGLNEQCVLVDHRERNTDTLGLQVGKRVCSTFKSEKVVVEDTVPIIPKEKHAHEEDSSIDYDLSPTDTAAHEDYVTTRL

[20] = molecular target: T6, Streptokinase A (Streptococcus pyogenes serotype M1, UniProt P10520); assay: viability-normalized secreted streptokinase activity reduction – plasminogen activation absorbance, OD405, dose response (AID 1914); assay type: functional, Streptococcus pyogenes M1 GAS;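 also: secreted streptokinase activity via plasminogen activation per viability signal from cell pellet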
T6 sequence (P10520 whole entry): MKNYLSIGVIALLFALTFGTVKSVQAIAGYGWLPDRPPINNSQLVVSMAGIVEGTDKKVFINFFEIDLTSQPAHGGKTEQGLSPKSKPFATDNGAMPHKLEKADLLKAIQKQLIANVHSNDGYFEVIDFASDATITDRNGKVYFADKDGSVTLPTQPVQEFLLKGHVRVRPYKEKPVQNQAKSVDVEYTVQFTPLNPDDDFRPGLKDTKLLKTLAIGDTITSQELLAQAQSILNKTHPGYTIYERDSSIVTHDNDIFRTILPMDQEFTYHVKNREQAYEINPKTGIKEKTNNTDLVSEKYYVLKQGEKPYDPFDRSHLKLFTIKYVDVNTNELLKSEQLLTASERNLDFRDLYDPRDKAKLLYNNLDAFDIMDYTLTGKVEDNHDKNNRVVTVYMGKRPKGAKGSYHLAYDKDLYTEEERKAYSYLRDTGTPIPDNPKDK

[21] = test system: Streptococcus; assay: GAS UMAA2166 growth inhibition – luminescence, BacTiterGlo, counter-screen for streptokinase expression inhibitor project, dose response (AID 1915); assay type: functional, organism-based;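 also: potency for reduction of bacterial viability or growth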
[22] = NIH-3T3 fibroblast cytotoxicity, dose response, cytotoxicity control, cell-based, fluorescence, Alamar Blue, secondary assay (AID 2327); assay type: functional;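 also: NIH-3T3 mouse fibroblasts cultured with fluconazole at 8 µg/mL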
[23] = molecular target: T2, Cytochrome P450 2C9
[24] = molecular target: T7, Cytochrome P450 3A4 (Homo sapiens, UniProt P08684)
[25] = molecular target: Cytochrome P450 2C19 (Homo sapiens, UniProt P33261); assay: Cytochrome panel assay with activity outcomes. Panel member name: p450-cyp2c19 Compounds with AC50 equal or less than 10 uM are considered active; assay type: functional; conditions: read-out: AC50
[26] = OVCAR-3 cell viability loss – plate reader, dry powder samples, PAX8 inhibitor project, dose response (AID 743044); assay type: functional, cell-based
[27] = P. falciparum Dd2 growth inhibitors, dose response, SYBR Green, cherry-picked samples (AID 1159567); assay type: functional, cell-based
[28] = toxicity to human hepatoma HepG2 cells – cell-based, cherry-picked samples, cytotoxicity control, dose response (AID 1159577); assay type: functional
[29] = molecular target: Paired box protein Pax-8 (Homo sapiens, UniProt Q06710); assay: PAX8 transcriptional activity inhibition in RMG-I – RMG-I cells, luciferase, cherry-pick, dose response (AID 687027); assay type: functional, cell-based;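 also: luciferase reporter driven by Pax8 target thyroperoxidase promoter measured by SteadyGlo luminescence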
[30] = molecular target: T7, Cytochrome P450 3A4; conditions: Potency

Cytochrome P450 2D6, sequence (P10635 whole entry): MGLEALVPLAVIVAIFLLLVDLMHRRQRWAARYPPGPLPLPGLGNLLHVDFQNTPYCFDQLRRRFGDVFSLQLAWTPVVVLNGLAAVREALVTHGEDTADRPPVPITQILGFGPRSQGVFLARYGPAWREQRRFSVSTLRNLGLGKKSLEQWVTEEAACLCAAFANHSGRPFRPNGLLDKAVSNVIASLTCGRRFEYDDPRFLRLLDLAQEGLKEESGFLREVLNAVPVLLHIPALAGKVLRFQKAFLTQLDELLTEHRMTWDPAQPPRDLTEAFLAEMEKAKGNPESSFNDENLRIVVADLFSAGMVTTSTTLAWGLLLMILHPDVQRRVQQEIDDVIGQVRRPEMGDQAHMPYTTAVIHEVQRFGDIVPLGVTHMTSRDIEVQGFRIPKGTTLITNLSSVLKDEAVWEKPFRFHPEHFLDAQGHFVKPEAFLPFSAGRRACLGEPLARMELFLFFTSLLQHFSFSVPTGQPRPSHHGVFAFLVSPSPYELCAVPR
T2 sequence (P11712 whole entry, the tested form may be a part): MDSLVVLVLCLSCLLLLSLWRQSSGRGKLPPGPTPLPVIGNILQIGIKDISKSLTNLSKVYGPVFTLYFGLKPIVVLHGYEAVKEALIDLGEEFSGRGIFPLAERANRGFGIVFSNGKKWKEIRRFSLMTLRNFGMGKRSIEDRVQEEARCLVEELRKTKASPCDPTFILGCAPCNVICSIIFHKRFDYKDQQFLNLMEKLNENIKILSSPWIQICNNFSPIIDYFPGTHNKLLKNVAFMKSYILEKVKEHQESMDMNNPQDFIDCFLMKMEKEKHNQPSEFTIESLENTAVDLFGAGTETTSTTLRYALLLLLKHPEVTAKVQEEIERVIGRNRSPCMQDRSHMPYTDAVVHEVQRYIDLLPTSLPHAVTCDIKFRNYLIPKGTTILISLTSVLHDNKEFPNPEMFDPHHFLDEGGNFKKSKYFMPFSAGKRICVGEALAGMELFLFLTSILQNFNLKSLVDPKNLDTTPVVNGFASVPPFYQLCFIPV
Peroxisome proliferator-activated receptor gamma/Nuclear receptor coactivator 2, sequence (P37231 whole entry): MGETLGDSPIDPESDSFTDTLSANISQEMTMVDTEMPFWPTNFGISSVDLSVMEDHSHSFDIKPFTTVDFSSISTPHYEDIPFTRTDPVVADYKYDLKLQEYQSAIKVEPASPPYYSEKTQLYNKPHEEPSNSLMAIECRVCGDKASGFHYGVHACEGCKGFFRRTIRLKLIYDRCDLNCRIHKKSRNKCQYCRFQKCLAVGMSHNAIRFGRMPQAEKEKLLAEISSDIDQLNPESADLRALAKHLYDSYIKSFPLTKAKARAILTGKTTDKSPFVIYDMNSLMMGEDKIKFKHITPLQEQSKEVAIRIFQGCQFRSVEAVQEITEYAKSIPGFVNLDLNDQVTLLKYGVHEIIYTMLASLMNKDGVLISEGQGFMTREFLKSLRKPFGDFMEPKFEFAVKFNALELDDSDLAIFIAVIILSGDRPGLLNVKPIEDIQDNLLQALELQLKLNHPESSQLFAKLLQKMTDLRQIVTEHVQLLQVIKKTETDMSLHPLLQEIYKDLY
Peroxisome proliferator-activated receptor gamma/Nuclear receptor coactivator 2, sequence (Q15596 whole entry, further chain): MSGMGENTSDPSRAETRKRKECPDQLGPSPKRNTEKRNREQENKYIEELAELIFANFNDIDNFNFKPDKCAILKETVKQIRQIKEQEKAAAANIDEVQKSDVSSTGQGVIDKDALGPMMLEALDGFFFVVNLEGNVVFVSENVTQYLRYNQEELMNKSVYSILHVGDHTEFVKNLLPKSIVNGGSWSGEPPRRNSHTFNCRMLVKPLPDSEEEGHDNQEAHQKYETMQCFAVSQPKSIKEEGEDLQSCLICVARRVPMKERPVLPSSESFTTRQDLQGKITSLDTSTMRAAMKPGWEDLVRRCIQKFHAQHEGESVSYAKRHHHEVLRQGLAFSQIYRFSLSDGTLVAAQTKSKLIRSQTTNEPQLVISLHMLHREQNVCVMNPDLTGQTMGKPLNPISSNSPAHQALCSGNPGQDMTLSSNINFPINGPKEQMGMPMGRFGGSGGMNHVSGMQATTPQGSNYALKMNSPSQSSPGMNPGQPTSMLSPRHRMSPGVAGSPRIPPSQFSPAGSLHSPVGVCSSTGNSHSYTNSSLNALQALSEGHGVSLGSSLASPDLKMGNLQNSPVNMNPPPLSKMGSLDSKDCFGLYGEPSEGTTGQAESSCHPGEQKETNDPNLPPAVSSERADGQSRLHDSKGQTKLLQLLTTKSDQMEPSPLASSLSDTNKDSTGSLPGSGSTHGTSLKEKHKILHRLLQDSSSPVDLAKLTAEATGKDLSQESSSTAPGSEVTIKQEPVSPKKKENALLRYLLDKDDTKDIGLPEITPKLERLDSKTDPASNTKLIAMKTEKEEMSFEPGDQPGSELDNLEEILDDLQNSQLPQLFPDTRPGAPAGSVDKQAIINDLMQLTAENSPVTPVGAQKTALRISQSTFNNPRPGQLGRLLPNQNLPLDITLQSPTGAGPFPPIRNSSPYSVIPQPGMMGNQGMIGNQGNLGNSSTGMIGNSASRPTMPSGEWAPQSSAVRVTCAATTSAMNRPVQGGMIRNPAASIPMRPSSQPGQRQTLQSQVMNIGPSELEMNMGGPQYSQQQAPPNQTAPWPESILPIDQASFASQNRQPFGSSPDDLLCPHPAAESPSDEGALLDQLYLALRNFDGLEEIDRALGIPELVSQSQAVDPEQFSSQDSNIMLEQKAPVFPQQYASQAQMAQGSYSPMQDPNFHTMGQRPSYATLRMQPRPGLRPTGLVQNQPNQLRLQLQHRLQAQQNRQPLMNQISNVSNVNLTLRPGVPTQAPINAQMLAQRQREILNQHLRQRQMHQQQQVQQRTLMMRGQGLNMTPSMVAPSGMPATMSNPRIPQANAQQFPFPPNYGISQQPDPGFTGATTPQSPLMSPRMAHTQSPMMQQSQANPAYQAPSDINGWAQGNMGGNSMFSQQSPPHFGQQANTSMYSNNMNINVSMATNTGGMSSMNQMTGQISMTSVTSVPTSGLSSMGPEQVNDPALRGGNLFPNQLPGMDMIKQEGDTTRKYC
Peroxisome proliferator-activated receptor gamma/Nuclear receptor coactivator 1, sequence (P37231 whole entry): as the sequence (P37231 whole entry) above
Peroxisome proliferator-activated receptor gamma/Nuclear receptor coactivator 1, sequence (Q15788 whole entry, further chain): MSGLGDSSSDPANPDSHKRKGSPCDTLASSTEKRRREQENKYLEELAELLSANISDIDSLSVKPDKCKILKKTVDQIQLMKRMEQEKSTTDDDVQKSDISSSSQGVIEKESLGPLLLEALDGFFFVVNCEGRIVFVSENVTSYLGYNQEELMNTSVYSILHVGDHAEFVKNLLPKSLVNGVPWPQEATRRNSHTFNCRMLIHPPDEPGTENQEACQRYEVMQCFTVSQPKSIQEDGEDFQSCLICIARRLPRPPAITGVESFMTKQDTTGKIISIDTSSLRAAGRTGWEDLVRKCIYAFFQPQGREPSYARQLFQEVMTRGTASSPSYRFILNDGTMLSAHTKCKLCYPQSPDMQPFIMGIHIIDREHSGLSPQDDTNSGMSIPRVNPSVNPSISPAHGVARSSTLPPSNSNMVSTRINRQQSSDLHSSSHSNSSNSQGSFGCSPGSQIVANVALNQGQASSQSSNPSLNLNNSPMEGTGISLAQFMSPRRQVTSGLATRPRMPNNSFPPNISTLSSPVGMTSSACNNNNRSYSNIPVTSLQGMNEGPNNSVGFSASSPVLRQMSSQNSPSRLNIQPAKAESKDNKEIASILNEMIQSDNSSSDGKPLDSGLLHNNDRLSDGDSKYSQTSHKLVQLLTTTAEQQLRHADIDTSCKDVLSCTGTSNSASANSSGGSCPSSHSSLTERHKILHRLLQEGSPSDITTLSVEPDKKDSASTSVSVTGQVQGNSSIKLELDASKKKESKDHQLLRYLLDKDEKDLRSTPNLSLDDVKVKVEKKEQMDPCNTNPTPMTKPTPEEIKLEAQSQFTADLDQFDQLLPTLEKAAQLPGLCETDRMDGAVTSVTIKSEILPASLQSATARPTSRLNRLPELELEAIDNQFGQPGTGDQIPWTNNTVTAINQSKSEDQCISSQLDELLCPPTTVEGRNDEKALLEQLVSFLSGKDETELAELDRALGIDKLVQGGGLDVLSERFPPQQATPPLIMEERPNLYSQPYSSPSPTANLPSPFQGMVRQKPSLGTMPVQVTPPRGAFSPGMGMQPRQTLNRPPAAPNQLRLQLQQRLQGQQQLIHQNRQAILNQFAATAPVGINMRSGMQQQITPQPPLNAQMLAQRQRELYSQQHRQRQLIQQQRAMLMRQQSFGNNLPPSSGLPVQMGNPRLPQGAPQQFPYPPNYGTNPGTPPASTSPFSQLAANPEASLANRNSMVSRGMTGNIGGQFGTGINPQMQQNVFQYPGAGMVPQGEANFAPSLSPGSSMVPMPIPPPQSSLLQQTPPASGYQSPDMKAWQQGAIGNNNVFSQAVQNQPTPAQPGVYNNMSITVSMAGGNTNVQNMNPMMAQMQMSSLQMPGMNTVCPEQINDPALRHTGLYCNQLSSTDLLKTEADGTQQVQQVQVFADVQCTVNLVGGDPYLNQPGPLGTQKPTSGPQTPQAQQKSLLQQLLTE

O=C(COC(=O)C1COc2ccccc2O1)NC(=O)Nc1ccc2c(c1)OCCO2 (stereo unspecified)
IC50 [1]: > 100 µM (active)

Cc1ccc2c(C)c(C(=O)N3CCN(c4ccncc4)CC3)oc2c1C
CC50 [2]: 46.9 µM (active)
IC50 [3]: 23.9 µM (active)

O=C(NC1=NCCS1)c1ccc2c(c1)C(=O)N(Cc1ccco1)C2=O
IC50 [4]: > 100 µM (not active)

O=C(NC1CCCCCC1)c1c(F)c(F)c(F)c(F)c1F
IC50 [4]: > 100 µM (not active)

CN(C)c1ccc(/C=C(/C(=O)c2ccc(Cl)cc2Cl)n2cncn2)cc1
EC50 [5]: > 100 µM (active)

Cn1c(SCc2cccc3ccccc23)nnc1-c1ccco1
CC50 [2]: > 50 µM (active)
IC50 [3]: 46.5 µM (active)

O=[N+]([O-])c1ccc(-c2ccc(/C=N/O)o2)cc1
IC50 [1]: > 100 µM (active)

COc1ccc(N2C(=O)/C(=C\NNS(=O)(=O)c3cccc([N+](=O)[O-])c3)c3ccccc3C2=O)cc1OC
EC50 [6]: > 79.4 µM (not active)
EC50 [7]: > 60 µM (not active)
EC50 [8]: > 79.4 µM (not active)
EC50 [9]: > 79.4 µM (not active)
EC50 [10]: 18.2 µM (active)

COc1cc(NC(=O)C2CCCCN2)ccc1OCC(C)C (stereo unspecified)
EC50 [11]: > 20 µM (not active)
EC50 [12]: > 20 µM (not active)

C=CCC1C=CC(Oc2ccc(OC)cc2)C(COC(=O)c2ccc(Br)cc2)O1 (stereo unspecified)
AC50 [13]: 6.31 µM (inconclusive)
AC50 [14]: 3.98 µM (inconclusive)

Nc1ccc(C(=O)Nc2ccc3c(O)cc(S(=O)(=O)O)cc3c2)cc1
IC50 [15]: 4.61 µM (active)
AC50 [16]: 8.79 µM (active)

CCCCC(=O)NNC(=S)NC(=O)C(c1ccccc1)c1ccccc1
EC50 [17]: 2.15 µM (active)
EC50 [18]: 0.788 µM (active)
EC50 [5]: > 100 µM (active)
EC50 [19]: 2.66 µM (active)
EC50 [20]: > 150 µM (not active)
EC50 [21]: 25.1 µM (active)
EC50 [22]: 19.6 µM (inconclusive)

CC[C@H](C)N(C)C(=O)c1cc2ccccc2c(-c2ccccc2Cl)n1
AC50 [14]: 15.8 µM (inconclusive)
AC50 [23]: 31.6 µM (inconclusive)
AC50 [24]: 20 µM (inconclusive)

COc1ccc(C(CN=C(S)NCc2ccccc2)N2CCCC2)cc1 (stereo unspecified)
IC50 [3]: 24.2 µM (active)

c1ccc(-c2oc3ncnc(NCCCN4CCOCC4)c3c2-c2ccccc2)cc1
EC50 [6]: > 79.4 µM (not active)
EC50 [8]: > 79.4 µM (not active)
EC50 [9]: > 79.4 µM (not active)

CC(=O)NC1(c2cccc(F)c2)CCN(CC(=O)NC2CCCCC2)CC1
EC50 [11]: > 20 µM (not active)
EC50 [12]: > 20 µM (not active)
AC50 [25]: 3.55 µM (inconclusive)

O=C(OCN1C(=O)c2ccccc2C1=O)c1cccs1
IC50 [4]: > 100 µM (not active)

O=C(Nc1ccccc1)N1C[C@@H]2N[C@H](C1)[C@@H]2c1ccc(/C=C/c2ccccc2)cc1
AC50 [26]: 33.5 µM (active)
AC50 [27]: 1.85 µM (active)
AC50 [28]: 7.17 µM (active)
AC50 [29]: 22.6 µM (active)

COc1ccc(/C=C/N(CCc2ccc(OC)c(OC)c2)C(=O)C(F)(F)F)cc1
AC50 [13]: 7.94 µM (inconclusive)
AC50 [14]: 3.16 µM (inconclusive)

CN(C)C(=O)c1ccc(-c2nc(N(C)C)c3ccccc3n2)cc1
AC50 [13]: 12.6 µM (inconclusive)
AC50 [30]: 1.58 µM (inconclusive)

Reference: ChEMBL document CHEMBL1201862, “PubChem BioAssay data set” (2004)
